Our source for the target mRNA inhibition values is the OligoGym collection.

Values joined by “and” are separate entries in the source; they are usually repeats but may differ in a detail not shown here. Identical values can stand only once. HELM strings list units from the 5' end as sugar, base in round brackets, then linkage (d deoxyribose, r ribose, m 2'-O-methyl, p phosphodiester). Methylation of C is not given here. [moe] = 2'-O-(2-methoxyethyl) (MOE); [cEt] = constrained ethyl (cEt); [sp] = phosphorothioate linkage

In the data set the target is HBV. Particulars: ASO.

Consider “RNA1{[moe](A)[sp].[cEt](C)[sp].d(G)[sp].d(T)[sp].d(G)[sp].d(C)[sp].d(A)[sp].d(G)[sp].d(A)[sp].d(G)[sp].d(G)[sp].d(T)[sp].[cEt](G)[sp].[moe](A)[sp].[cEt](A)[sp].[moe](G)}$$$$V2.0”, for which the target mRNA inhibition (HepG2, 0.07 µM) was 71% and 68%.

With “RNA1{[moe](G)[sp].[moe](A)[sp].[moe](A)[sp].d(C)[sp].d(T)[sp].d(G)[sp].d(G)[sp].d(A)[sp].d(G)[sp].d(C)[sp].d(C)[sp].d(A)[sp].d(C)[sp].[cEt](C)[sp].[cEt](A)[sp].[cEt](G)}$$$$V2.0”, the target mRNA inhibition (HepG2, 0.07 µM) was 59% and 58%. As to “RNA1{[moe](C)[sp].[cEt](C)[sp].[cEt](A)[sp].d(C)[sp].d(T)[sp].d(G)[sp].d(A)[sp].d(A)[sp].d(C)[sp].d(A)[sp].d(A)[sp].d(A)[sp].d(T)[sp].[cEt](G)[sp].[cEt](G)[sp].[moe](C)}$$$$V2.0”, the target mRNA inhibition is 11% (HepG2, 0.0092593 µM); 28% (HepG2, 0.0277778 µM); 78% and 84% (HepG2, 0.07 µM); 68% (HepG2, 0.0833333 µM); 89% (HepG2, 0.25 µM). In the case of “RNA1{[moe](G)[sp].[cEt](A)[sp].d(G)[sp].d(G)[sp].d(T)[sp].d(G)[sp].d(A)[sp].d(A)[sp].d(G)[sp].d(C)[sp].d(G)[sp].d(A)[sp].[cEt](A)[sp].[moe](G)[sp].[cEt](T)[sp].[moe](G)}$$$$V2.0”, the target mRNA inhibition was 17% (HepG2, 0.0092593 µM); 40% (HepG2, 0.0277778 µM); 75% and 82% (HepG2, 0.07 µM); 65% (HepG2, 0.0833333 µM); 79% (HepG2, 0.25 µM).

Turning to “RNA1{[moe](A)[sp].[moe](A)[sp].d(C)[sp].d(T)[sp].d(G)[sp].d(G)[sp].d(A)[sp].d(G)[sp].d(C)[sp].d(C)[sp].d(A)[sp].[moe](C)[sp].[moe](C)[sp].[moe](A)[sp].[moe](G)[sp].[moe](C)[sp].[moe](A)}$$$$V2.0”, the target mRNA inhibition (HepG2, 0.07 µM) is 68% and 53%. On to “RNA1{[moe](A)[sp].[moe](A)[sp].[moe](C)[sp].d(C)[sp].d(A)[sp].d(C)[sp].d(T)[sp].d(G)[sp].d(A)[sp].d(A)[sp].d(C)[sp].d(A)[sp].d(A)[sp].[cEt](A)[sp].[cEt](T)[sp].[cEt](G)}$$$$V2.0”, for which the target mRNA inhibition (HepG2, 0.07 µM) is 41% and 38%. On to “RNA1{[moe](T)[sp].[moe](T)[sp].[moe](C)[sp].d(C)[sp].d(G)[sp].d(C)[sp].d(A)[sp].d(G)[sp].d(T)[sp].d(A)[sp].d(T)[sp].d(G)[sp].[moe](G)[sp].[moe](A)[sp].[moe](T)[sp].[moe](C)[sp].[moe](G)}$$$$V2.0”, for which, under “HepG2, 0.07 µM”, the target mRNA inhibition is 73% and 60%.

In the case of “RNA1{[moe](G)[sp].[moe](A)[sp].[moe](A)[sp].[moe](G)[sp].[moe](C)[sp].[moe](G)[sp].d(A)[sp].d(A)[sp].d(G)[sp].d(T)[sp].d(G)[sp].d(C)[sp].d(A)[sp].d(C)[sp].d(A)[sp].[moe](C)[sp].[moe](G)}$$$$V2.0”, the target mRNA inhibition (HepG2, 0.07 µM) was 87% and 66%. The same measure, in the same setting: with “RNA1{[moe](T)[sp].[moe](G)[sp].[moe](C)[sp].d(A)[sp].d(G)[sp].d(A)[sp].d(G)[sp].d(G)[sp].d(T)[sp].d(G)[sp].d(A)[sp].d(A)[sp].[moe](G)[sp].[moe](C)[sp].[moe](G)[sp].[moe](A)}$$$$V2.0” the figure was 51% and 56%. Turning to “RNA1{[moe](T)[sp].[cEt](C)[sp].d(C)[sp].d(G)[sp].d(C)[sp].d(A)[sp].d(G)[sp].d(T)[sp].d(A)[sp].d(T)[sp].d(G)[sp].d(G)[sp].[cEt](A)[sp].[moe](T)[sp].[cEt](C)[sp].[moe](G)}$$$$V2.0”, the target mRNA inhibition is 33% (HepG2, 0.0092593 µM); 56% (HepG2, 0.0277778 µM); 85% and 81% (HepG2, 0.07 µM); 80% (HepG2, 0.0833333 µM); 92% (HepG2, 0.25 µM). In the case of “RNA1{[moe](T)[sp].[moe](G)[sp].[moe](A)[sp].d(A)[sp].d(G)[sp].d(C)[sp].d(G)[sp].d(A)[sp].d(A)[sp].d(G)[sp].d(T)[sp].d(G)[sp].d(C)[sp].[cEt](A)[sp].[cEt](C)[sp].[cEt](A)}$$$$V2.0”, the target mRNA inhibition (HepG2, 0.07 µM) is 67% and 70%. Turning to “RNA1{[moe](C)[sp].[moe](C)[sp].[moe](G)[sp].d(C)[sp].d(A)[sp].d(G)[sp].d(T)[sp].d(A)[sp].d(T)[sp].d(G)[sp].d(G)[sp].d(A)[sp].[moe](T)[sp].[moe](C)[sp].[moe](G)[sp].[moe](G)[sp].[moe](C)}$$$$V2.0”, under “HepG2, 0.07 µM”, the target mRNA inhibition was 86% and 73%. For the substance “RNA1{[moe](T)[sp].[moe](T)[sp].[moe](A)[sp].[moe](T)[sp].d(G)[sp].d(C)[sp].d(C)[sp].d(T)[sp].d(A)[sp].d(C)[sp].d(A)[sp].d(G)[sp].d(C)[sp].[moe](C)[sp].[moe](T)[sp].[moe](C)[sp].[moe](C)}$$$$V2.0”, the target mRNA inhibition (HepG2, 0.07 µM) is 52% and 34%.

With “RNA1{[moe](G)[sp].[moe](G)[sp].d(C)[sp].d(A)[sp].d(T)[sp].d(A)[sp].d(G)[sp].d(C)[sp].d(A)[sp].d(G)[sp].d(C)[sp].[moe](A)[sp].[moe](G)[sp].[moe](G)[sp].[moe](A)[sp].[moe](T)}$$$$V2.0”, the target mRNA inhibition (HepG2, 0.07 µM) was 52% and 40%. As to “RNA1{[moe](G)[sp].[moe](A)[sp].[moe](G)[sp].d(T)[sp].d(T)[sp].d(C)[sp].d(C)[sp].d(G)[sp].d(C)[sp].d(A)[sp].d(G)[sp].d(T)[sp].d(A)[sp].[cEt](T)[sp].[cEt](G)[sp].[cEt](G)}$$$$V2.0”, the target mRNA inhibition (HepG2, 0.07 µM) was 70% and 62%.

In the case of “RNA1{[moe](G)[sp].[moe](A)[sp].[moe](G)[sp].[moe](G)[sp].[moe](T)[sp].[moe](G)[sp].d(A)[sp].d(A)[sp].d(G)[sp].d(C)[sp].d(G)[sp].d(A)[sp].d(A)[sp].d(G)[sp].d(T)[sp].[moe](G)[sp].[moe](C)}$$$$V2.0”, the target mRNA inhibition (HepG2, 0.07 µM) was 75% and 52%. “RNA1{[moe](T)[sp].[moe](C)[sp].[moe](C)[sp].[moe](G)[sp].d(C)[sp].d(A)[sp].d(G)[sp].d(T)[sp].d(A)[sp].d(T)[sp].d(G)[sp].d(G)[sp].d(A)[sp].[moe](T)[sp].[moe](C)[sp].[moe](G)}$$$$V2.0”: the target mRNA inhibition (HepG2, 0.07 µM) is 71% and 73%. Take “RNA1{[moe](A)[sp].[moe](G)[sp].[moe](G)[sp].[moe](T)[sp].[moe](G)[sp].d(A)[sp].d(A)[sp].d(G)[sp].d(C)[sp].d(G)[sp].d(A)[sp].d(A)[sp].d(G)[sp].d(T)[sp].[moe](G)[sp].[moe](C)}$$$$V2.0”: the target mRNA inhibition (HepG2, 0.07 µM) is 50% and 44%. On to “RNA1{[moe](A)[sp].[moe](G)[sp].[moe](A)[sp].[moe](G)[sp].d(G)[sp].d(T)[sp].d(G)[sp].d(A)[sp].d(A)[sp].d(G)[sp].d(C)[sp].d(G)[sp].d(A)[sp].[moe](A)[sp].[moe](G)[sp].[moe](T)[sp].[moe](G)}$$$$V2.0”, for which the target mRNA inhibition (HepG2, 0.07 µM) was 50% and 47%. Consider “RNA1{[moe](C)[sp].[moe](G)[sp].[moe](T)[sp].d(G)[sp].d(C)[sp].d(A)[sp].d(G)[sp].d(A)[sp].d(G)[sp].d(G)[sp].d(T)[sp].d(G)[sp].[moe](A)[sp].[moe](A)[sp].[moe](G)[sp].[moe](C)[sp].[moe](G)}$$$$V2.0”, for which the target mRNA inhibition (HepG2, 0.07 µM) was 70% and 64%. Turning to “RNA1{[moe](A)[sp].[moe](G)[sp].[moe](G)[sp].[moe](C)[sp].d(A)[sp].d(T)[sp].d(A)[sp].d(G)[sp].d(C)[sp].d(A)[sp].d(G)[sp].d(C)[sp].d(A)[sp].[moe](G)[sp].[moe](G)[sp].[moe](A)[sp].[moe](T)}$$$$V2.0”, the target mRNA inhibition (HepG2, 0.07 µM) was 29% and 31%. For the substance “RNA1{[moe](T)[sp].[cEt](C)[sp].[cEt](A)[sp].d(G)[sp].d(C)[sp].d(A)[sp].d(A)[sp].d(A)[sp].d(C)[sp].d(A)[sp].d(C)[sp].d(T)[sp].d(T)[sp].[cEt](G)[sp].[cEt](G)[sp].[moe](C)}$$$$V2.0”, under “HepG2, 0.07 µM”, the target mRNA inhibition was 67% and 71%. As for “RNA1{[moe](C)[sp].[moe](A)[sp].[moe](A)[sp].d(T)[sp].d(T)[sp].d(T)[sp].d(A)[sp].d(T)[sp].d(G)[sp].d(C)[sp].d(C)[sp].d(T)[sp].d(A)[sp].[cEt](C)[sp].[cEt](A)[sp].[cEt](G)}$$$$V2.0”, for the setting “HepG2, 0.07 µM”, the target mRNA inhibition was 30% and 20%. For “RNA1{[moe](G)[sp].[cEt](A)[sp].d(G)[sp].d(T)[sp].d(T)[sp].d(C)[sp].d(C)[sp].d(G)[sp].d(C)[sp].d(A)[sp].d(G)[sp].d(T)[sp].[cEt](A)[sp].[moe](T)[sp].[cEt](G)[sp].[moe](G)}$$$$V2.0”, the target mRNA inhibition (HepG2, 0.07 µM) is 75% and 68%.

With “RNA1{[moe](C)[sp].[moe](G)[sp].[moe](A)[sp].[moe](A)[sp].d(C)[sp].d(C)[sp].d(A)[sp].d(C)[sp].d(T)[sp].d(G)[sp].d(A)[sp].d(A)[sp].d(C)[sp].[moe](A)[sp].[moe](A)[sp].[moe](A)}$$$$V2.0”, for the setting “HepG2, 0.07 µM”, the target mRNA inhibition was 44% and 32%. Turning to “RNA1{[moe](C)[sp].[moe](T)[sp].[moe](G)[sp].[moe](G)[sp].d(A)[sp].d(G)[sp].d(C)[sp].d(C)[sp].d(A)[sp].d(C)[sp].d(C)[sp].d(A)[sp].d(G)[sp].[moe](C)[sp].[moe](A)[sp].[moe](G)[sp].[moe](G)}$$$$V2.0”, the target mRNA inhibition runs as follows: (HepG2, 0.0092593 µM) 0%; (HepG2, 0.0277778 µM) 24%; (HepG2, 0.07 µM) 79% and 76%; (HepG2, 0.0833333 µM) 65%; (HepG2, 0.25 µM) 79%. For the substance “RNA1{[moe](G)[sp].[moe](A)[sp].[moe](G)[sp].d(G)[sp].d(C)[sp].d(A)[sp].d(T)[sp].d(A)[sp].d(G)[sp].d(C)[sp].d(A)[sp].d(G)[sp].[moe](C)[sp].[moe](A)[sp].[moe](G)[sp].[moe](G)[sp].[moe](A)}$$$$V2.0”, the target mRNA inhibition (HepG2, 0.07 µM) is 66% and 57%. Same read-out and setting: the result for “RNA1{[moe](A)[sp].[moe](G)[sp].[moe](A)[sp].[moe](G)[sp].[moe](G)[sp].d(T)[sp].d(G)[sp].d(A)[sp].d(A)[sp].d(G)[sp].d(C)[sp].d(G)[sp].d(A)[sp].d(A)[sp].[moe](G)[sp].[moe](T)[sp].[moe](G)}$$$$V2.0” reads 64% and 55%; that for “RNA1{[moe](A)[sp].[moe](A)[sp].d(C)[sp].d(C)[sp].d(A)[sp].d(C)[sp].d(T)[sp].d(G)[sp].d(A)[sp].d(A)[sp].d(C)[sp].[moe](A)[sp].[moe](A)[sp].[moe](A)[sp].[moe](T)[sp].[moe](G)[sp].[moe](G)}$$$$V2.0”, 67% and 59%.
